Results published in PubChem BioAssay (NCI).
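48-hour exposure; five concentrations; linearly interpolated endpoints. Here, GI50 denotes the concentration required for 50% inhibition of growth. The concentration for full growth arrest is given as TGI.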

Legend:
Assay in all cases: growth of human tumour cells (NCI), 48 h
[1] = test system: NCI-H460 lung
[2] = test system: DU-145 prostate
[3] = test system: OVCAR-5 ovarian
[4] = test system: NCI/ADR-RES ovarian
[5] = test system: EKVX NSCLC
[6] = test system: PC-3 prostate
[7] = test system: HL-60(TB) leukemia
[8] = test system: LOX IMVI melanoma
[9] = test system: SR leukemia

| SMILES | GI50 [1] | TGI [1] | GI50 [2] | TGI [2] | GI50 [3] | TGI [3] | GI50 [4] | TGI [4] | GI50 [5] | TGI [5] | GI50 [6] | TGI [6] | GI50 [7] | TGI [7] | GI50 [8] | TGI [8] | GI50 [9] | TGI [9] |
| --- | --- | --- | --- | --- | --- | --- | --- | --- | --- | --- | --- | --- | --- | --- | --- | --- | --- | --- |
| COc1ccc(/C=C2\CN(C(=O)CCN3CCC(=NO)CC3)C/C(=C\c3ccc(OC)cc3)C2=O)cc1 | 2.63 µM | 6.74 µM | 1.9 µM | 3.67 µM | 1.83 µM | 3.92 µM | 3.72 µM | 20.8 µM | 4.04 µM | 17.6 µM | 2 µM | 4.74 µM | 2.8 µM | 8.27 µM | 1.47 µM | 2.96 µM | 0.616 µM | 29.1 µM |
| COc1ccccc1/C=C1\Sc2scc(-c3cccc([N+](=O)[O-])c3)[n+]2C1=O | – | 26.9 µM | – | 26.6 µM | – | 39 µM | – | 34.2 µM | – | 28 µM | – | 37.4 µM | – | 1.17 µM | – | 4.39 µM | – | > 100 µM |
| CSC(SC)=C1C(=O)NN=C1C | – | > 100 µM | – | > 100 µM | – | > 100 µM | – | – | – | > 100 µM | – | > 100 µM | – | > 100 µM | – | > 100 µM | – | > 100 µM |
| COCCOCN(C(=O)C1=CCC2(CC1)OCCO2)c1ccccc1I | – | > 50 µM | – | > 50 µM | – | > 50 µM | – | > 50 µM | – | > 50 µM | – | > 50 µM | – | – | – | > 50 µM | – | > 50 µM |
| CCOc1ccc2ccccc2c1NC1=NCCO1 | – | 57.7 µM | – | > 100 µM | – | > 100 µM | – | > 100 µM | – | > 100 µM | – | – | – | 49.6 µM | – | – | – | > 100 µM |
| S=C(NNC1=NCCCN1)Nc1ccccc1 | – | > 100 µM | – | – | – | > 100 µM | – | > 100 µM | – | > 100 µM | – | > 100 µM | – | > 100 µM | – | > 100 µM | – | > 100 µM |
| CCOC(=O)C1(Cc2ccccc2)Cc2cc3c(cc2C1)CCC3 | – | > 100 µM | – | > 100 µM | – | 66.3 µM | – | > 100 µM | – | > 100 µM | – | > 100 µM | – | 76.9 µM | – | 43.9 µM | – | 65.1 µM |
| CSCCC(NCc1c(O)ccc2ccc(=O)oc12)C(=O)O (stereo not drawn) | – | > 100 µM | – | > 100 µM | – | > 100 µM | – | > 100 µM | – | > 100 µM | – | > 100 µM | – | > 100 µM | – | > 100 µM | – | > 100 µM |
| CC(CC(=O)CO[C@H]1[C@H](O)[C@@H](O)[C@@H](O)[C@@H]2NC(=O)c3c(cc4c(c3O)OCO4)[C@H]21)OC1OC(CO)C(O)C(O)C1O (stereo partly drawn) | – | – | – | 0.664 µM | – | 5.7 µM | – | 3.97 µM | – | 3.46 µM | – | 1.48 µM | – | 2.45 µM | – | 1.32 µM | – | 2.22 µM |
| O=C1/C(=C\c2ccc([N+](=O)[O-])cc2)Sc2scc(-c3ccc(O)c(O)c3)[n+]21 | – | 16.5 µM | – | 37.2 µM | – | 35.4 µM | – | 50.1 µM | – | 31.6 µM | – | 19.4 µM | – | 8.93 µM | – | > 100 µM | – | 27.9 µM |
